Reference: the supplement of paper PMC11368000

Legend:
Settings in all cases: exposure time: 90 min
[1] = test system: 1516 (donor line of iPSC-derived cardiomyocytes); experiment: POD (EC95) for loss of peak frequency (asystole) vs vehicle; higher = less potent (higher point of departure)
Procedure: (§1)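 Human iPSC-derived cardiomyocytes from 16 donors were exposed for 90 min at 37 °C to each PFAS at 0.1, 1, 10 and 100 µM in 0.5% DMSO, 384-well plates. Kinetic Ca2+ flux (FLIPR) and Hoechst nuclei counts were normalised to vehicle wells and fitted with a hierarchical Bayesian Hill model to give donor-specific PODs: EC05 for beat-rate increase or decrease and for decay-to-rise ratio increase (QT proxy), EC95 for peak-frequency loss (asystole), EC10 for total cell number loss. 0.03 µM is the lower bound.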

[2] = test system: 1118 (donor line of iPSC-derived cardiomyocytes); experiment: as above
Procedure: as §1

[3] = test system: 1309 (donor line of iPSC-derived cardiomyocytes); experiment: as above
Procedure: as §1

[4] = test system: 11235 (donor line of iPSC-derived cardiomyocytes); experiment: as above
Procedure: as §1

[5] = test system: 1392 (donor line of iPSC-derived cardiomyocytes); experiment: as above
Procedure: as §1

[6] = test system: 1531 (donor line of iPSC-derived cardiomyocytes); experiment: as above
Procedure: as §1

[7] = test system: 1535 (donor line of iPSC-derived cardiomyocytes); experiment: as above
Procedure: as §1

[8] = test system: 1565 (donor line of iPSC-derived cardiomyocytes); experiment: as above
Procedure: as §1

[9] = test system: 1368 (donor line of iPSC-derived cardiomyocytes); experiment: as above
Procedure: as §1

[10] = test system: 1083 (donor line of iPSC-derived cardiomyocytes); experiment: as above
Procedure: as §1

[11] = test system: 1518 (donor line of iPSC-derived cardiomyocytes); experiment: as above
Procedure: as §1

[12] = test system: 20032 (donor line of iPSC-derived cardiomyocytes); experiment: as above
Procedure: as §1

[13] = test system: 30145 (donor line of iPSC-derived cardiomyocytes); experiment: as above
Procedure: as §1

[14] = test system: 30171 (donor line of iPSC-derived cardiomyocytes); experiment: as above
Procedure: as §1

[15] = test system: 1434 (donor line of iPSC-derived cardiomyocytes); experiment: as above
Procedure: as §1

[16] = test system: 20084 (donor line of iPSC-derived cardiomyocytes); experiment: as above
Procedure: as §1

[17] = test system: 1392; experiment: POD (EC10) for decrease in total cell number (cytotoxicity) vs vehicle; higher = less potent (higher point of departure)
Procedure: as §1

[18] = test system: 1518; experiment: as above
Procedure: as §1

[19] = test system: 30145; experiment: as above
Procedure: as §1

[20] = test system: 1434; experiment: as above
Procedure: as §1

Row | Compound | POD vs vehicle [1] | POD vs vehicle [2] | POD vs vehicle [3] | POD vs vehicle [4] | POD vs vehicle [5] | POD vs vehicle [6] | POD vs vehicle [7] | POD vs vehicle [8] | POD vs vehicle [9] | POD vs vehicle [10] | POD vs vehicle [11] | POD vs vehicle [12] | POD vs vehicle [13] | POD vs vehicle [14] | POD vs vehicle [15] | POD vs vehicle [16] | POD vs vehicle [17] | POD vs vehicle [18] | POD vs vehicle [19] | POD vs vehicle [20]
1 | O=S(=O)(OCC(F)(F)F)C(F)(F)C(F)(F)C(F)(F)C(F)(F)F [2,2,2-Trifluoroethyl_perfluorobutanesulfonate] | > 100 µM | > 100 µM | > 100 µM | > 100 µM | > 100 µM | > 100 µM | > 100 µM | > 100 µM | > 100 µM | > 100 µM | > 100 µM | > 100 µM | > 100 µM | > 100 µM | > 100 µM | > 100 µM | > 100 µM | > 100 µM | > 100 µM | > 100 µM
2 | COC(=O)C(F)(F)C(F)(F)OC(F)(C(F)(F)F)C(F)(F)OC(F)=C(F)F (stereo not given) [Methyl_perfluoro(3-(1-ethenyloxypropan-2-yloxy)propanoate)] | > 100 µM | > 100 µM | > 100 µM | > 100 µM | > 100 µM | > 100 µM | > 100 µM | > 100 µM | > 100 µM | > 100 µM | > 100 µM | > 100 µM | > 100 µM | > 100 µM | > 100 µM | > 100 µM | > 100 µM | > 100 µM | > 100 µM | > 100 µM
3 | O=C(O)C(F)(F)OC(F)(F)C(F)(F)OC(F)(F)C(=O)O [Perfluoro-3,6-dioxaoctane-1,8-dioic_acid] | > 100 µM | > 100 µM | > 100 µM | > 100 µM | > 100 µM | > 100 µM | > 100 µM | > 100 µM | > 100 µM | > 100 µM | > 100 µM | > 100 µM | > 100 µM | > 100 µM | > 100 µM | > 100 µM | > 100 µM | > 100 µM | > 100 µM | > 100 µM
4 | O=C(O)CCC(F)(F)C(F)(F)C(F)(F)F [3:3 Fluorotelomer carboxylic acid] | > 100 µM | > 100 µM | > 100 µM | > 100 µM | > 100 µM | > 100 µM | > 100 µM | > 100 µM | > 100 µM | > 100 µM | > 100 µM | > 100 µM | > 100 µM | > 100 µM | > 100 µM | > 100 µM | > 100 µM | > 100 µM | > 100 µM | > 100 µM
5 | OCC(F)(F)C(F)(F)C(F)(F)C(F)F [1H,1H,5H-Perfluoropentanol] | > 100 µM | 86.3 µM | > 100 µM | > 100 µM | > 100 µM | > 100 µM | > 100 µM | > 100 µM | > 100 µM | > 100 µM | > 100 µM | > 100 µM | > 100 µM | > 100 µM | > 100 µM | > 100 µM | > 100 µM | > 100 µM | > 100 µM | > 100 µM
6 | O=C(O)CCC(F)(F)C(F)(F)C(F)(F)C(F)(F)C(F)(F)C(F)(F)C(F)(F)F [3-Perfluoroheptylpropanoic_acid] | > 100 µM | 59.8 µM | > 100 µM | 84.8 µM | > 100 µM | > 100 µM | > 100 µM | > 100 µM | > 100 µM | > 100 µM | > 100 µM | > 100 µM | > 100 µM | > 100 µM | 90.9 µM | > 100 µM | > 100 µM | > 100 µM | > 100 µM | > 100 µM
7 | O=C(O)C(F)(F)C(F)(F)C(F)(F)C(F)(F)C(F)(F)C(F)(F)C(F)(F)F [Perfluorooctanoic_acid] | > 100 µM | > 100 µM | > 100 µM | 92.2 µM | > 100 µM | > 100 µM | > 100 µM | > 100 µM | > 100 µM | > 100 µM | > 100 µM | > 100 µM | > 100 µM | > 100 µM | > 100 µM | > 100 µM | > 100 µM | > 100 µM | > 100 µM | > 100 µM
8 | O=S(=O)([O-])C(F)(F)C(F)(F)C(F)(F)C(F)(F)F.[K+] [Potassium_perfluorobutanesulfonate] | > 100 µM | > 100 µM | > 100 µM | > 100 µM | > 100 µM | > 100 µM | > 100 µM | > 100 µM | > 100 µM | > 100 µM | > 100 µM | > 100 µM | > 100 µM | > 100 µM | > 100 µM | > 100 µM | > 100 µM | > 100 µM | > 100 µM | 53.9 µM
9 | NC(=O)C(F)(F)C(F)(F)C(F)(F)C(F)(F)C(F)(F)C(F)(F)C(F)(F)F [Perfluorooctanamide] | > 100 µM | > 100 µM | > 100 µM | > 100 µM | > 100 µM | > 100 µM | > 100 µM | > 100 µM | > 100 µM | > 100 µM | > 100 µM | > 100 µM | > 100 µM | > 100 µM | > 100 µM | > 100 µM | > 100 µM | > 100 µM | > 100 µM | > 100 µM
10 | O=C(O)C=C(C(F)(F)F)C(F)(F)F [3,3-Bis(trifluoromethyl)-2-propenoic_acid] | > 100 µM | > 100 µM | > 100 µM | > 100 µM | > 100 µM | > 100 µM | > 100 µM | > 100 µM | > 100 µM | > 100 µM | > 100 µM | > 100 µM | > 100 µM | > 100 µM | > 100 µM | > 100 µM | > 100 µM | > 100 µM | > 100 µM | > 100 µM
